Entries after “also recorded” stand apart in the source; their conditions may differ.
Experiments:
tasters [1] = assay: Taster evaluation with malic acid (Example 10); type: in vivo, human; conditions: 1 weight percent malic acid in water; 0.3 weight percent 1,3-propanediol (Y), propylene glycol (Z) or none (AA)
Method: Samples were prepared to evaluate the effect of including 1,3-propanediol with malic acid. Sample Y included 1 weight percent malic acid with 0.3 weight percent 1,3-propanediol in water. Sample Z included 1 weight percent malic acid and 0.3 weight percent propylene glycol in water. Sample AA included 1 weight percent malic acid in water.

tasters [2] = assay: Taster evaluation with 1% citric acid (Example 9); type: in vivo, human; conditions: 1 weight percent citric acid in water; 0.3 weight percent propylene glycol (V), none (W) or 1,3-propanediol (X); four tasters
Method: Samples were prepared to evaluate the effect of including 1,3-propanediol with a higher concentration of citric acid than in Example 8. Sample V included 1 weight percent citric acid and 0.3 weight percent propylene glycol in water. Sample W included 1 weight percent citric acid in water. Sample X included 1 weight percent citric acid in water with 0.3 weight percent 1,3-propanediol. The samples were then evaluated by a team of four tasters.

tasters [3] = assay: Taster evaluation with earl grey tea (Example 11); type: in vivo, human; conditions: steeped earl grey tea; 0.3 weight percent 1,3-propanediol (AB), none (AC) or propylene glycol (AD); four tasters
Method: Samples were prepared to evaluate the effect of including 1,3-propanediol with tea. Six earl grey tea bags were combined with 250 ml of water for 30 minutes. Sample AB included 0.3 weight percent 1,3-propanediol in the steeped tea and Sample AD included 0.3 weight percent propylene glycol in the steeped tea. Sample AC was a tea only control. The samples were evaluated by a team of four tasters.

tasters [4] = assay: Triangle test for detecting 1,3-propanediol at low concentration (Example 4); type: in vivo, human; conditions: for tasters who could identify the 1,3-propanediol in a triangle test: four tasters
Method: Samples A-D were prepared according to Table 4 below to analyze and determine if 1,3-propanediol imparted any flavor when used at low concentrations. The samples were evaluated by a team of four tasters.
Samples A and B were compared.

consumers [5] = assay: Paired consumer tasting of beverages with 0.05% Stevia SG95 with or without 1,3-propanediol (Example 1); type: in vivo, human
Method: Beverage samples were prepared to evaluate the effect of the level of 1,3-propanediol on Stevia. The beverages were prepared just prior to testing using water and the ingredients according to Table 1 below.
Four pairs of beverages were evaluated by consumers in one sitting. The order of evaluating the pairs of products was blocked so that the highest level of 1,3-propanediol (sample 4) was always served as the first pair of beverages along with its corresponding control. The order of evaluating the beverage samples within pairs was rotated. There was a timed five minute break between pairs. Water and unsalted crackers were used as a palate cleanser before tasting each beverage and between beverage pairs. The beverages were prepared at the facility prior to the onset of test using water along with the designated solutions.
The stevia used was SG95 from PureCircle. SG95 is a high purity combination (>95% steviol glycosides) of nine steviol glycosides. Reb A accounts for over half of the composition but also includes Rebaudioside D and Rebaudioside F. SG95 is 230 times sweeter than sugar.
The samples were tasted by consumers between 21-55 years of age who consume diet beverages at least once per month and are non-rejectors of flavored beverages. The consumers had no allergies or sensitivities to beverages or sweeteners, including artificial sweeteners.

tasters [6] = assay: Paired taster test: which sample is more bitter, 0.25% KCl in water with or without 1,3-propanediol (Example 2); type: in vivo, human
Method: A 0.25% KCl in water solution was prepared and test samples were dosed with the appropriate amount of 1,3-propanediol according to Table 2 below. One ounce samples of each solution were prepared. The tasters received a pair (one blank and one dosed sample) and asked to rate which sample was more bitter. The scores in Table 2 are the number of tasters that chose that sample as being more bitter.

consumers [7] = assay: Paired consumer tasting of beverages with 0.25% KCl with or without 1,3-propanediol (Example 3); type: in vivo, human
Method: Beverage samples were prepared to evaluate the effect of the level of 1,3-propanediol on KCl. The samples were tasted by consumers between 21-55 years of age with no allergies or sensitivities to food or beverages or ingredients.
(§1) On day 1 of testing, consumers were given two samples, one a 0.25% KCl solution and the other water, and asked “Which beverage is more bitter?” This was replicated a total of three times to obtain four different trials. Order within the pair was rotated. Those who selected the KCl sample at least three times across the four trials were classified as “KCl sensitive.” Consumers then evaluated three more pairs of samples with varying levels of 1,3-propanediol with KCl versus a standard control (no 1,3-propanediol) as outlined in Table 3 below.
(§2) After the first day of testing, it was determined the number of KCl Bitterness Sensitive consumers may have been overstated. It was hypothesized that respondents could detect differences between plain water and water containing KCl, such as saltiness, but may not have been perceiving bitterness. Therefore, a second bitterness sensitivity test was conducted on day 2 using three pairs of a KCl solution (0.25%) versus a NaCl solution (0.15%) in an attempt to have the solutions iso-salty. Two new levels of Zemea were evaluated along with KCl versus a standard control as outlined in Table 3 below.
The order of evaluating the beverage samples within pairs were rotated (left/right). The order of evaluating the pairs of products was blocked so the highest level of 1,3-propanediol was always served as the first pair of beverages along with its control. There was a timed 5 minute break between pairs. Water and unsalted crackers were used as a palate cleanser before tasting each beverage and between beverage pairs.

tasters [8] = assay: Taster evaluation with Robusta instant coffee (Example 12); type: in vivo, human; conditions: 1 weight percent Robusta instant coffee in water; 0.3 weight percent propylene glycol (AE), none (AF) or 1,3-propanediol (AG)
Method: Samples were prepared to evaluate the effect of including 1,3-propanediol with coffee. Robusta instant coffee was prepared with 1 weight percent coffee in water. Sample AE included 0.3 weight percent propylene glycol in the prepared coffee. Sample AF was a coffee only control. Sample AG included 0.3 weight percent 1,3-propanediol in the prepared coffee.

tasters [9] = assay: Taster evaluation with acetic acid (Example 7); type: in vivo, human; conditions: 0.05 percent acetic acid in water; none, 0.3 percent 1,3-propanediol or 0.3 percent propylene glycol; three tasters
Method: Samples were prepared to evaluate the effect of inclusion of 1,3-propanediol with acetic acid. Sample M included 0.05 percent acetic acid in water, Sample N included 0.05 percent acetic acid in water with 0.3 percent 1,3-propanediol, and Sample O included 0.05 percent acetic acid in water with 0.3 percent propylene glycol. The samples were evaluated by a team of three tasters.

panelists = assay: Panel assessment of Reb A beverage with or without 1,3-propanediol (Example 5); type: in vivo, human; conditions: Sample H versus Sample G
Method: Samples were prepared to analyze the effect of 1,3-propanediol with sweeteners such as Reb A. Samples G and H were prepared as shown in Table 5 below.
Nine panelists compared the samples. Panelists rinsed prior to tasting the samples and in between sample assessment with seltzer, unsalted crackers and water with a one-minute break between samples. Samples were assessed on the second sip. The results are shown below in Table 6 with the comments indicating the order of what was tasted in each of the samples (Scale: 0-15=None to Extreme).

tasters [10] = assay: Bitterness perception with potassium chloride, taster panel (Example 6); conditions: 0.3% KCl in water; 0.3% 1,3-propanediol, none or 0.3% propylene glycol; five tasters
consumers [11] = assay: KCl bitterness sensitivity test (Example 3); type: in vivo, human
Text: as §1, §2

[12] = first round, Pair 1: 0.0019 percent 1,3-propanediol with 0.05% Stevia SG95
[13] = first round, Pair 2: 0.0075 percent 1,3-propanediol with 0.05% Stevia SG95
[14] = second round, Pair 2: 0.000005 percent 1,3-propanediol with 0.05% Stevia SG95
[15] = second round, Pair 4: 0.0005 percent 1,3-propanediol with 0.05% Stevia SG95
[16] = 0.000005 ppm 1,3-propanediol in 0.25% KCl in water
[17] = 0.00005 ppm 1,3-propanediol in 0.25% KCl in water
[18] = 0.005 ppm 1,3-propanediol in 0.25% KCl in water
[19] = 0.05 ppm 1,3-propanediol in 0.25% KCl in water
[20] = 0.5 ppm 1,3-propanediol in 0.25% KCl in water
[21] = 5 ppm 1,3-propanediol in 0.25% KCl in water
[22] = 50 ppm 1,3-propanediol in 0.25% KCl in water
[23] = 100 ppm 1,3-propanediol in 0.25% KCl in water
[24] = 500 ppm 1,3-propanediol in 0.25% KCl in water
[25] = 5000 ppm 1,3-propanediol in 0.25% KCl in water
[26] = about 0.0005% 1,3-propanediol with 0.25% KCl, consumers (general population), FIG. 4

OCCCO [1,3-propanediol]
sourness as indicated by the tasters (tasters [1]): more sour upfront but less lingering | sourness as indicated by the tasters (tasters [2]): increased sourness perception when combined with citric acid | other flavor notes / flavor profile as indicated by the tasters (tasters [3]): sour, bitter, and astringent characteristics all changed | tasters who could identify the 1,3-propanediol in a triangle test (tasters [4]; Samples A and B: 0.14% 1,3-propanediol in water): one | tasters who could identify the 1,3-propanediol in a triangle test (tasters [4]; Samples C and D: 0.14% 1,3-propanediol in water with 10% sucrose): one | detectability at low levels (tasters [4]; water or sucrose sweetened beverages): generally not detectable at low levels | Stevia bitterness versus control (consumers [5]; [12]): significantly less Stevia bitterness | more mouth drying, longer lasting aftertaste and sweetness versus control (consumers [5]; [12]): Neither the control nor the experimental sample of Pair 1 demonstrated significantly | sweetness versus control (consumers [5]; [12]): fell short on being sweeter than control | all other attributes versus control (consumers [5]; [13]): selected about equally | mouth drying versus control (consumers [5]; [13]): significantly more “mouth drying” | attributes versus control (consumers [5]; first round, Pair 3: 0.0150 percent 1,3-propanediol with 0.05% Stevia SG95): no statistical differences in attributes | attributes versus control (consumers [5]; first round, Pair 4: 0.03 percent 1,3-propanediol (text; Table 1 prints 0.3%) with 0.05% Stevia SG95): no statistical differences in attributes | bitterness versus control (consumers [5]; first round, Pair 4 level of 1,3-propanediol with 0.05% Stevia SG95): numerically more bitterness | attributes versus control (consumers [5]; second round, Pair 1: 0.0000005 percent 1,3-propanediol with 0.05% Stevia SG95): no statistical differences in attributes | aftertaste compared to control (consumers [5]; [14]): significantly longer lasting aftertaste | all other attributes versus control (consumers [5]; [14]): selected about equally | attributes versus control (consumers [5]; second round, Pair 3: 0.00005 percent 1,3-propanediol with 0.05% Stevia SG95): no statistical differences in attributes | bitterness compared to control (consumers [5]; [15]): significantly less bitterness | sweetness compared to control (consumers [5]; [15]): more sweetness; also recorded: significantly sweeter versus control | % of tasters that chose the control as more bittter (tasters [6]; [16]): 63% | number of tasters that chose the 1,3-Propanediol sample as being more bitter (tasters [6]; [16]): 3 | % of tasters that chose the control as more bittter (tasters [6]; [17]): 63% | number of tasters that chose the 1,3-Propanediol sample as being more bitter (tasters [6]; [17]): 3 | % of tasters that chose the control as more bittter (tasters [6]; 0.0005 ppm 1,3-propanediol in 0.25% KCl in water): 100% | % of tasters that chose the control as more bittter (tasters [6]; [18]): 50% | number of tasters that chose the 1,3-Propanediol sample as being more bitter (tasters [6]; [18]): 4 | % of tasters that chose the control as more bittter (tasters [6]; [19]): 75% | number of tasters that chose the 1,3-Propanediol sample as being more bitter (tasters [6]; [19]): 2 | % of tasters that chose the control as more bittter (tasters [6]; [20]): 63% | number of tasters that chose the 1,3-Propanediol sample as being more bitter (tasters [6]; [20]): 3 | % of tasters that chose the control as more bittter (tasters [6]; [21]): 63% | number of tasters that chose the 1,3-Propanediol sample as being more bitter (tasters [6]; [21]): 3 | % of tasters that chose the control as more bittter (tasters [6]; [22]): 75% | number of tasters that chose the 1,3-Propanediol sample as being more bitter (tasters [6]; [22]): 2 | % of tasters that chose the control as more bittter (tasters [6]; [23]): 75% | number of tasters that chose the 1,3-Propanediol sample as being more bitter (tasters [6]; [23]): 2 | % of tasters that chose the control as more bittter (tasters [6]; [24]): 75% | number of tasters that chose the 1,3-Propanediol sample as being more bitter (tasters [6]; [24]): 2 | % of tasters that chose the control as more bittter (tasters [6]; [25]): 13% | number of tasters that chose the 1,3-Propanediol sample as being more bitter (tasters [6]; [25]): 7 | taste of 1,3-propanediol itself (tasters [6]; 5000 ppm sample in 0.25% KCl in water): the bitterness of the 1,3-propanediol was apparent | sweetness, statistical significance (consumers [7]; 0.0005 percent 1,3-propanediol with 0.25% KCl, non-KCl sensitive consumers): statistically significant increase in sweetness | reduced bitterness and increased sweetness (consumers [7]; about 0.0005% 1,3-propanediol with 0.25% KCl, KCl sensitive consumers, FIG. 5): also found in the KCl sensitive consumers (FIG. 5), although to a less dramatic extent | bitterness (consumers [7]; [26]): reduced bitterness | sweetness (consumers [7]; [26]): increased sweetness | bitterness as indicated by the tasters (tasters [8]): less bitter than without 1,3-propanediol | sourness as indicated by the tasters (tasters [9]): increases the sourness compared to water when combined with acetic acid | effect on flavor profile with Reb A (panelists): general shift in bitter and sour flavor profiles | bitterness as indicated by the tasters (tasters [10]): functioned to suppress bitterness when used with potassium chloride

[Cl-].[K+] [KCl, potassium chloride]
share of “KCl sensitive” consumers (consumers [11]; day 1: 0.25% KCl solution versus water): 67% | share of “KCl sensitive” consumers (consumers [11]; day 2: KCl solution (0.25%) versus NaCl solution (0.15%)): 53%

From patent US9408406B2, “Food and beverage products containing 1,3-propanediol and methods of suppressing bitterness and enhancing sweetness in food and beverage products using 1,3-propanediol” (Kraft Foods Group Brands LLC, priority 2012, dated 2016)
